Paper PMC6271783 (Molecules, 2014)
“Also recorded” adds a separate entry of the source.

Tests used:
rat α3β2 nAChRs [1] = target: T1, rat α3β2 nAChRs (Rattus norvegicus, UniProt P04757+P12390); assay type: biochemical
T1 construct: expressed in transfected cells; host or cells: Xenopus laevis oocytes injected with cRNA

[2] = test system: AChBPs from different species; settings: cited from earlier work
α3β2 nAChRs = settings: cited from earlier work
rat α3β2 nAChRs [3] = target: T1, rat α3β2 nAChRs; experiment: biochemical
[4] = assay type: physicochemical; settings: pH 7

T1 sequence (P04757 26-499 limits assumed): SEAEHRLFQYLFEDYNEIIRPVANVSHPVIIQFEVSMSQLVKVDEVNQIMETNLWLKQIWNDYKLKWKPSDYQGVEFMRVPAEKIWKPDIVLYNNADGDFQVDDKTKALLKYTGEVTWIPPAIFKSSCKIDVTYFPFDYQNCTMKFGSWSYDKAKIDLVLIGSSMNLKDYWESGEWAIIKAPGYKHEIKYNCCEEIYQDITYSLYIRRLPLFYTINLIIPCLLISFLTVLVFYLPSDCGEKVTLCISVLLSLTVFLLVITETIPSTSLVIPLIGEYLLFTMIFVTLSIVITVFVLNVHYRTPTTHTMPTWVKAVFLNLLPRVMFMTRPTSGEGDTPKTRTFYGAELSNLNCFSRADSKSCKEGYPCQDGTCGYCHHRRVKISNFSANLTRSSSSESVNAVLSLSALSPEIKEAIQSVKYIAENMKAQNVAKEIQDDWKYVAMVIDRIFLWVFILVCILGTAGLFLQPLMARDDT
T1 sequence (P12390 25-500 limits assumed): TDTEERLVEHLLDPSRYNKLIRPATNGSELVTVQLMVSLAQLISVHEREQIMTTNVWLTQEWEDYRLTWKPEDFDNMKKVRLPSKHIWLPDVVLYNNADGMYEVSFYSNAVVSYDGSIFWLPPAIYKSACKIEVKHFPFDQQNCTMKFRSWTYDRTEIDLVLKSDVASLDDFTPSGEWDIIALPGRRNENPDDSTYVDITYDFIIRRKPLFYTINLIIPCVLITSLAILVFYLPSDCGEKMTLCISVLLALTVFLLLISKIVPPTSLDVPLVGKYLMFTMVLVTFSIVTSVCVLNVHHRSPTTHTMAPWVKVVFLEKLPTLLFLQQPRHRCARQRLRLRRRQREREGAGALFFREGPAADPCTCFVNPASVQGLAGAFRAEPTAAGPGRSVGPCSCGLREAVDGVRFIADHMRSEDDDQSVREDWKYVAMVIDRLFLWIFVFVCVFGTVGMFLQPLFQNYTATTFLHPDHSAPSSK

SMILES | relative potency among venom components (rat α3β2 nAChRs [1]) | affinity to AChBPs [2] | selectivity (α3β2 nAChRs) | IC50 (rat α3β2 nAChRs [3]) | activity on α3β2 nAChRs (rat α3β2 nAChRs [3]) | fold more potent than ribbon isomer (rat α3β2 nAChRs [3]) | inhibition of ACh-evoked response (rat α3β2 nAChRs [3]) | reversibility of inhibition (rat α3β2 nAChRs [3]) | CD minimum [4] | CD minimum, second of double minimum [4] | secondary structure by CD [4] | fold less potent than globular isomer (rat α3β2 nAChRs [3]) | inhibition at 0.5 µM (rat α3β2 nAChRs [3]; read-out: inhibition of ACh evoked current amplitude)
CC[C@H](C)[C@@H]1NC(=O)[C@@H]2CSSC[C@H](NC(=O)CN)C(=O)N[C@@H](CSSC[C@@H](C(N)=O)NC(=O)[C@H](CC(C)C)NC(=O)[C@H](CC(=O)O)NC(=O)[C@@H]3CCCN3C(=O)[C@H](CC(N)=O)NC(=O)[C@H](CC(N)=O)NC(=O)[C@H](C)NC1=O)C(=O)N[C@@H](CO)C(=O)N[C@@H](CCCNC(=N)N)C(=O)N1CCC[C@H]1C(=O)N1CCC[C@H]1C(=O)N2 [globular TxIA, α-conotoxin TxIA] | most potent component; also recorded: highest potency | high affinity | selectively targeted the α3β2 nAChRs | 5.4 nM | most potent isoform; also recorded: strongly inhibited; also recorded: most active form | ~ 80 -fold | almost complete inhibition | reversibly inhibited | around 208 nm | ~222 nm | contained some α-helical structure |  | 
CC[C@H](C)[C@@H]1NC(=O)[C@@H]2CSSC[C@H](NC(=O)[C@@H](NC(=O)CN)CSSC[C@@H](C(N)=O)NC(=O)[C@H](CC(C)C)NC(=O)[C@H](CC(=O)O)NC(=O)[C@@H]3CCCN3C(=O)[C@H](CC(N)=O)NC(=O)[C@H](CC(N)=O)NC(=O)[C@H](C)NC1=O)C(=O)N[C@@H](CO)C(=O)N[C@@H](CCCNC(=N)N)C(=O)N1CCC[C@H]1C(=O)N1CCC[C@H]1C(=O)N2 [ribbon TxIA] |  |  |  | 430 nM | weaker potency |  |  |  |  |  | between them | ~ 80 times | ~65%
